Reference: patent publication US8129359B2, “Composition and method for treating post-surgical pain” (Ethicon, Inc., priority 2004, dated 2012)
Entries after “also recorded” stand apart in the source; their conditions may differ. Structures can show the parent of a compound that is named as a salt.

How the values were obtained:
[1] = Pharmacokinetic evaluation of diclofenac release in a rat model (plasma and incision-site tissue, LC/MS/MS); format: in vivo
Experimental: Pharmacokinetic studies in a rat model were conducted to determine the rate of diclofenac release from the composition. Male Sprague Dawley rats (four rats per time point per group) were anesthetized with isoflurane and subjected to a single surgical incision on the plantar surface of the left hind paw. The medial tendon was exposed by blunt dissection and subjected to a 20 second clamp using a mosquito hemostat.
In Group 1 the incision was sutured closed following manipulation of the tendon. The rats were administered an intraperitoneal injection of 5 mg/kg Diclofenac (as sodium salt, saline vehicle) 4 hours and 23 hours post-surgery. Blood and tissue samples were harvested at 0.25, 1, 4 and 6 hours after the second dose.
In Group 2, oxidized regenerated cellulose (Surgicel® Fibrillar absorbable hemostat) was implanted between the tendon and the metatarsals and 0.5 mg of Diclofenac (as sodium salt, saline vehicle) was instilled directly into the wound site and the incision was sutured closed. Blood samples were taken at 0.25,1, 4, 6, 24 and 48 hours post surgery.
Blood was harvested into K-EDTA tubes via cardiac puncture while the rats were anesthetized with isoflurane. Rats were terminated immediately after the blood draw by CO2 inhalation, and the skin, muscle fascia and tendon of the left hind paw incision site were harvested. The contralateral tissue of the right hind paw was harvested and retained separately.
Blood samples were centrifuged to yield plasma, the resulting plasma as well as tissue samples were sent to Covance, Madison Wis. for LC/MS/MS analysis of diclofenac. Briefly, the analytical method involves extracting ˜50 mg of tissue or 50 uL of plasma w/acetonitrile; the residue of the ACN extract is analyzed by tandem mass spectroscopy. The dynamic ranges of the plasma and tissue assays were 25 to 12,500 ng/mL and 25 to 12,500 ng/g, respectively.

[2] = system: Male Sprague Dawley rats; test: Brennan surgical pain model (mechanical allodynia by von Frey filaments, mechanical hyperalgesia by pin-prick test); format: in vivo, rat; conditions: for Efficacy for reduction of post-surgical pain at a surgical wound site: in the oxidized regenerated cellulose-based system, MPE greater than 30 percent considered efficacious
Experimental: In order to evaluate the analgesic efficacy of the composition containing oxidized regenerated cellulose particles dry blended with an NSAID powder (diclofenac sodium), the Brennan surgical pain model was used (Characterization of a rat model of incisional pain, Brennan, T. J., et al., Pain: 64 (1996); 493-501). The model was performed as follows. Male Sprague Dawley rats weighing 250-300 grams were used throughout the experiment. Prior to surgery, each animal was habituated to the testing environment and a baseline response to Semmes-Weinstein (von Frey) filaments was established. Animals were anesthetized using a fresh mixture of xylazine and ketamine containing 100 mg ketamine/ml and 20 mg xylazine/ml. Each animal was injected intramuscularly with 1 ml/kg to achieve surgical anesthesia. The left hind paw was aseptically prepared and a 1 cm incision through the skin and fascia was made on the plantar surface of the hind paw, extending from the ankle distally. The middle digital tendon was isolated and crushed using mosquito hemostats for 20 seconds. Following surgery animals were tested for mechanical sensitivity at 4, 24, 48, 72 and 96 hours following surgery.
Ten rats were evaluated in each of the following groups:
Group 1. Control group: all animals were given intraperitoneal (IP) injections of saline (1 ml/kg) 1 hour before testing for mechanical allodynia and hyperalgesia.
This equates to a total of 1 mg of diclofenac sodium or approximately 4 mg/kg for a 250 g animal.
Group 3: Immediately post-tendon crush, a single dose (20 mg of micronized oxidized regenerated cellulose with an approximate particle size of 20-25 microns blended with […]) was mixed with 100 microliters of a sterile saline solution. The composition was then applied to the site of the crushed tendon.
This equates to a total of 0.5 mg of diclofenac sodium or approximately 2 mg/kg for a 250 g animal. […]
This equates to a total of 2.0 mg of diclofenac sodium or approximately 8 mg/kg for a 250 g animal.
The pin-prick test was used to assess mechanical hyperalgesia. Briefly, a blunted safety pin was used to gently tent the plantar skin of each hind paw without breaking the skin. A stopwatch was used to measure the withdrawal time following this stimulus. Increased withdrawal time (in seconds) was interpreted as mechanical hyperalgesia.
Mechanical sensitivity or mechanical allodynia from each time point was normalized against the negative control group and against each individual animal's pre-surgical mechanical sensitivity. Mechanical sensitivity was assessed using a procedure described by Chaplan et al. (J. Neurosci. Methods 1994, 53: 55-63). A series of von Frey filaments of varying rigidity strength (typically eight filaments in the series) were applied to the plantar surface of the hind paw ipsilateral to the ligations with just enough force to bend the filament. […] A positive allodynic response consists of lifting the affected paw followed immediately by licking or shaking of the paw. The order and frequency with which the filaments were applied was determined using the Dixon up-down method. Testing was initiated with the middle filament of the series with subsequent filaments being applied in consecutive fashion, ascending or descending, depending on whether a negative or positive response, respectively, was obtained with the initial filament.
Results are expressed as percent of Maximal Potential Efficacy (% MPE).

[3] = Micronized (20–25 um) oxidized regenerated cellulose, dry/powder, 1 mg
[4] = Surgicel Fibrillar absorbable hemostat 6 × 6 mm, solution, 0.5 mg
[5] = Surgicel Fibrillar absorbable hemostat 6 × 6 mm, solution, 1.0 mg

O=C(O)Cc1ccccc1Nc1c(Cl)cccc1Cl [DCF Free acid, 2-((2,6-ichlorophenyl)amino)benzeneacetic acid]
Diclofenac concentrations at the surgical site ([1]; after local administration of composition containing oxidized regenerated cellulose and diclofenac, FIG. 3A): remaining relatively high; also recorded: remained relatively high | Tissue concentrations of diclofenac ([1]; intraperitoneal injection of diclofenac solution, FIG. 3A): rapid decline | Plasma concentrations of diclofenac, local administration compared with systemic administration ([1]; local administration from the composition, FIG. 3B): much lower | Efficacy for reduction of post-surgical pain at a surgical wound site [2]: surprisingly efficacious

O=C(O)Cc1ccccc1Nc1c(Cl)cccc1Cl [DCF Sol'n, 2-[(2,6-dichlorophenyl)amino]-Benzeneacetic acid, monosodium salt]
Period of analgesia ([2]; 6 mm×6 mm Surgicel Fibrillar oxidized regenerated cellulose plus diclofenac sodium and saline): 48 h | Benefit at 72 hours ([2]; 6 mm×6 mm Surgicel Fibrillar oxidized regenerated cellulose plus diclofenac sodium and saline, 72 hours): smaller benefit | Efficacy (duration of analgesic effect) ([2]; Interceed absorbable adhesion barrier 6 × 6 mm, solution, 0.5 mg): 48 h | Efficacy (duration of analgesic effect) ([2]; Intraplantar injection, solution, 0.5 mg): 4 h | Efficacy (duration of analgesic effect) [2, 3]: 72 h | Efficacy (duration of analgesic effect) ([2]; Micronized (20–25 um) oxidized regenerated cellulose, solution, 1.0 mg, applied at crushed tendon): 72 h | Significant increase in analgesic effect, through ([2]; Micronized oxidized regenerated cellulose (20-25 micron) mixed with diclofenac sodium and saline): 72 h | Effect at 96 hours ([2]; Micronized oxidized regenerated cellulose (20-25 micron) mixed with diclofenac sodium and saline, 96 hours): some effect | Efficacy (duration of analgesic effect) ([2]; Repeated IPL injec., solution, 0.5 mg): 4 h | Efficacy (duration of analgesic effect) [2, 4]: 48 h | Efficacy (duration of analgesic effect) [2, 5]: 48 h

COc1ccc2c(c1)c(CC(=O)O)c(C)n2C(=O)c1ccc(Cl)cc1 [Inodmethacin Sol'n, indomethacin]
Efficacy (duration of analgesic effect) [2, 4]: Ineffective | Efficacy for reduction of post-surgical pain at a surgical wound site [2]: neither indomethacin nor ketoprofen is efficacious

CC(C(=O)O)c1cccc(C(=O)c2ccccc2)c1 (stereo not drawn) [Ketoprofen Sol'n, ketoprofen]
Efficacy (duration of analgesic effect) [2, 4]: Ineffective | Efficacy for reduction of post-surgical pain at a surgical wound site [2]: neither indomethacin nor ketoprofen is efficacious

Cc1cccc(C)c1NC(=O)C1CCCCN1C (stereo not drawn) [Mepiv Sol'n, mepivacaine hydrochloride]
Efficacy (duration of analgesic effect) ([2]; Intraplantar injection, solution, 1.0 mg): 4 h | Efficacy (duration of analgesic effect) [2, 3]: Ineffec- | Efficacy (duration of analgesic effect) ([2]; Repeated IPL injec., solution, 1.0 mg): 72+ Hrs | Efficacy (duration of analgesic effect) [2, 5]: 4 Hrs effect

COc1cccc(C2(O)CCCCC2CN(C)C)c1 (stereo not drawn) [Tramadol Sol'n, tramadol]
Efficacy (duration of analgesic effect) ([2]; Surgicel Fibrillar absorbable hemostat 6 × 6 mm, solution, 2 mg): 24 h
